From patent US12617779B2, “Self degradation-type CDK9 inhibitor prodrug and liposome encapsulating same” (Sumitomo Pharma Co., Ltd., priority 2021, dated 2026)

How the values were obtained:
[1] = Evaluation of conversion rate to active form in buffer solution (Experimental Example 1); type: physicochemical
Experimental: For Examples 1 to 16 and Comparative Examples 1 to 14, the attrition rate of the test compound and the conversion rate of the test compound to Alvocidib in a buffer solution were calculated by the following method.
Examples 1 to 16 and Comparative Examples 1 to 14 were each left in buffer solutions adjusted to pH 5.0, 5.5, 6.0, 6.5, 7.0 and 7.4, respectively, at a concentration of 25 umol/L at 37° C. After 0, 0.5, 1, 2 and 3 hours, the residual rates of the compounds of Examples […] and the production rate of Alvocidib were determined by HPLC.
The buffer solutions used at each pH are as follows. • pH 5.0: 50 mM citrate buffer solution (pH 5.0) • pH 5.5: 50 mM citrate buffer solution (pH 5.5) • pH 6.0: 50 mM phosphate buffer solution (pH 6.0) • pH 6.5: 50 mM phosphate buffer solution (pH 6.5) • pH 7.0: 50 mM phosphate buffer solution (pH 7.0) • pH 7.4: 50 mM phosphate buffer solution (pH 7.4)
The measurement conditions for HPLC are as follows.

[2] = Evaluation of conversion rate to active form in human plasma (Experimental Example 3); type: in vitro ADME; details: human, 0.2 μmol/L
Experimental: (§1) For Example 1, Example 2, Example 3, Example 4, Example 5, Example 6, Comparative Example 3, Comparative Example 4, Comparative Example 6, Comparative Example 7, Comparative Example 8, Comparative Example 9, Comparative Example 10 and Comparative Example 12, the attrition rate of the test compound and the conversion rate of the test compound to Alvocidib in human plasma and BALB/c mouse plasma were calculated by the following method.
(§2) The test compound was added to human plasma or BALB/c mouse plasma at a concentration of 0.2 μmol/L, and incubated at 37° C. The peak areas of the test compound and Alvocidib in the sample were determined by LC-MS/MS after 0, 30 and 60 minutes for Example 1, Example 2, Example 3, Example 4, Example 5 and Example 6, and after 0, 60 and 120 minutes for Comparative Example 3, Comparative Example 4, Comparative Example 6, Comparative Example 7, Comparative Example 8, Comparative Example 9, Comparative Example 10 and Comparative Example 12, and the attrition rate of the test compound and the conversion rate of the test compound to Alvocidib were calculated by the following formula. Attrition rate of test compound (%):(peak area of test compound in sample/peak area of test compound in sample after 0 minute)×100 Conversion rate to Alvocidib (%):(peak area of Alvocidib in sample/peak area of Alvocidib in reaction solution containing 0.2 μmol/L Alvocidib)×100
(§3) The measurement conditions for LC-MS/MS are as follows. • HPLC: Prominence system (Shimadzu Corporation) • MS/MS: • Example 1, Example 2, Example 3, Example 4, Example 5, Example 6, Comparative Example 8 (mouse), Comparative Example 10 (mouse) and Comparative Example 12 (mouse) • QTRAP5500 (SCIEX) • Comparative Example 6, Comparative Example 7, Comparative Example 8 (human), Comparative Example 9, Comparative Example 10 (human) and Comparative Example 12 (human) • 4000 QTRAP (SCIEX) • column: • other than Example 3 and Example 4 • Cadenza CD-C18, 3 μm, 50×2 mm (Imtakt Corporation) • Example 3 and Example 4 • Kinetex C8, 2.6 μm, 50×2.1 mm (Phenomenex) • column temperature: 40° C. • mobile phase: • A: water containing 0.1% formic acid • B: acetonitrile containing 0.1% formic acid • A/B (min): • Example 1, Example 2, Example 5, Example 6, Comparative Example 8 (mouse), Comparative Example 10 (mouse) and Comparative Example 12 (mouse) • 90/10(0)→40/60(5.0)→10/90(5.1)→10/90(6.5)→90/10(6.6)→90/10(8.0) • Example 3 and Example 4 • 86/14(0)→86/14(3.5)→10/90(5.5)→10/90(6.5)→86/14(6.6)→86/14(9.5) • Comparative Example 6, Comparative Example 7, Comparative Example 8 (human), Comparative Example 9, Comparative Example 10 (human) and Comparative Example 12 (human) • 90/10(0)→10/90(2.5)→10/90(3.5)→90/10(3.6)→90/10(5.0) • flow rate: 0.4 mL/min • detection: ESI (positive mode) • injection: 1 to 5 μL

[3] = Evaluation of conversion rate to active form in BALB/c mouse plasma (Experimental Example 3); type: in vitro ADME; details: BALB/c, mouse, 0.2 μmol/L
Experimental: as §1, §2, §3

Production rate of Alvocidib ([1]; pH5.0, 0 hr): 1.2% | Residual rate ([1]; pH5.0, 0 hr): 90.6% | Production rate of Alvocidib ([1]; pH5.0, 0.5 hr): 1.2% | Residual rate ([1]; pH5.0, 0.5 hr): 90.6% | Production rate of Alvocidib ([1]; pH5.0, 1 hr): 1.2% | Residual rate ([1]; pH5.0, 1 hr): 90.7% | Production rate of Alvocidib ([1]; pH5.0, 2 hr): 1.3% | Residual rate ([1]; pH5.0, 2 hr): 90.2% | Production rate of Alvocidib ([1]; pH5.0, 3 hr): 1.2% | Residual rate ([1]; pH5.0, 3 hr): 90.6% | Production rate of Alvocidib ([1]; pH5.5, 0 hr): 1.1% | Residual rate ([1]; pH5.5, 0 hr): 90.9% | Production rate of Alvocidib ([1]; pH5.5, 0.5 hr): 1.1% | Residual rate ([1]; pH5.5, 0.5 hr): 90.9% | Production rate of Alvocidib ([1]; pH5.5, 1 hr): 1.2% | Residual rate ([1]; pH5.5, 1 hr): 90.6% | Production rate of Alvocidib ([1]; pH5.5, 2 hr): 1.2% | Residual rate ([1]; pH5.5, 2 hr): 89.9% | Production rate of Alvocidib ([1]; pH5.5, 3 hr): 1.1% | Residual rate ([1]; pH5.5, 3 hr): 90.7% | Production rate of Alvocidib ([1]; pH6.0, 0 hr): 1.1% | Residual rate ([1]; pH6.0, 0 hr): 91.0% | Production rate of Alvocidib ([1]; pH6.0, 0.5 hr): 1.2% | Residual rate ([1]; pH6.0, 0.5 hr): 90.8% | Production rate of Alvocidib ([1]; pH6.0, 1 hr): 1.1% | Residual rate ([1]; pH6.0, 1 hr): 90.9% | Production rate of Alvocidib ([1]; pH6.0, 2 hr): 1.2% | Residual rate ([1]; pH6.0, 2 hr): 90.0% | Production rate of Alvocidib ([1]; pH6.0, 3 hr): 1.2% | Residual rate ([1]; pH6.0, 3 hr): 90.9% | Production rate of Alvocidib ([1]; pH6.5, 0 hr): 1.1% | Residual rate ([1]; pH6.5, 0 hr): 90.8% | Production rate of Alvocidib ([1]; pH6.5, 0.5 hr): 1.1% | Residual rate ([1]; pH6.5, 0.5 hr): 90.9% | Production rate of Alvocidib ([1]; pH6.5, 1 hr): 1.2% | Residual rate ([1]; pH6.5, 1 hr): 90.8% | Production rate of Alvocidib ([1]; pH6.5, 2 hr): 1.3% | Residual rate ([1]; pH6.5, 2 hr): 89.9% | Production rate of Alvocidib ([1]; pH6.5, 3 hr): 1.2% | Residual rate ([1]; pH6.5, 3 hr): 90.8% | Production rate of Alvocidib ([1]; pH7.0, 0 hr): 1.1% | Residual rate ([1]; pH7.0, 0 hr): 91.0% | Production rate of Alvocidib ([1]; pH7.0, 0.5 hr): 1.2% | Residual rate ([1]; pH7.0, 0.5 hr): 91.0% | Production rate of Alvocidib ([1]; pH7.0, 1 hr): 1.2% | Residual rate ([1]; pH7.0, 1 hr): 90.9% | Production rate of Alvocidib ([1]; pH7.0, 2 hr): 1.4% | Residual rate ([1]; pH7.0, 2 hr): 89.8% | Production rate of Alvocidib ([1]; pH7.0, 3 hr): 1.3% | Residual rate ([1]; pH7.0, 3 hr): 90.8% | Production rate of Alvocidib ([1]; pH7.4, 0 hr): 1.1% | Residual rate ([1]; pH7.4, 0 hr): 91.0% | Conversion to Alvocidib at pH 7.4 ([1]; pH 7.4, 37° C., up to 3 hours): slowly converted to Alvocidib | Production rate of Alvocidib ([1]; pH7.4, 0.5 hr): 1.2% | Residual rate ([1]; pH7.4, 0.5 hr): 91.0% | Production rate of Alvocidib ([1]; pH7.4, 1 hr): 1.2% | Residual rate ([1]; pH7.4, 1 hr): 91.0% | Production rate of Alvocidib ([1]; pH7.4, 2 hr): 1.4% | Residual rate ([1]; pH7.4, 2 hr): 90.1% | Production rate of Alvocidib ([1]; pH7.4, 3 hr): 1.3% | Residual rate ([1]; pH7.4, 3 hr): 90.8% | Production rate (%) of Alvocidib ([2]; 0 min): 1% | Residual rate (%) of test compound ([2]; 0 min): 100% | Production rate (%) of Alvocidib ([2]; 60 min): 1% | Residual rate (%) of test compound ([2]; 60 min): 78% | Production rate (%) of Alvocidib ([2]; 120 min): 2% | Residual rate (%) of test compound ([2]; 120 min): 101% | Production rate (%) of Alvocidib ([3]; 0 min): 1% | Residual rate (%) of test compound ([3]; 0 min): 100% | Production rate (%) of Alvocidib ([3]; 60 min): 7% | Residual rate (%) of test compound ([3]; 60 min): 90% | Production rate (%) of Alvocidib ([3]; 120 min): 13% | Residual rate (%) of test compound ([3]; 120 min): 78%
SMILES: CCOC(=O)O[C@@H]1CN(C)CC[C@@H]1c1c(O)cc(O)c2c(=O)cc(-c3ccccc3Cl)oc12 [Comparative Example 3, reference compound]
